These results are taken from ChEMBL document CHEMBL1156251, “Structure--activity relationships of polymyxin antibiotics” (J Med Chem, 2010).

The term IC50 denotes the point on the concentration scale where inhibition reaches its midpoint. In general, MIC refers to the lowest concentration found to suppress growth. A higher MIC goes with a less susceptible organism.

In brackets after ≈: the same amount, converted by molar mass. *1 amine or outer side, *2 acyl side, *3 side chain or, on linkers, in order; H or OH if unused. Where a SMILES comes first, the peptide text is derived from it. Bridges are numbered along the chain shown (N, C = ends). The star is where a group is joined. X1 = NC(=O)[C@@H](CS[*:2])C(=O)[*:1]; X2 = CC[C@H](C)[C@H](NO*)C(=O)O Bounds are passed on as bounds.

In one test the target is Lipopolysaccharide (LPS). Briefly: Displacement of dansyl-PMB from LPS by isothermal titration calorimetry.
Another test has as its system Pseudomonas aeruginosa. Briefly: Antimicrobial activity against Pseudomonas aeruginosa. The class given is functional, organism-based.
A further test relates to Escherichia coli. As to the kind of experiment: Antimicrobial activity against Escherichia coli. Type of test: functional.
Another test concerns Salmonella enterica. Briefly: Antimicrobial activity against Salmonella enterica. The class given is functional.

With `C[C@@H](O)[C@H](N)C(=O)N[C@@H](CCN)C(=O)N[C@H]1CCNC(=O)[C@H]([C@@H](C)O)NC(=O)[C@H](CCN)NC(=O)[C@H](CCN)NC(=O)[C@H](Cc2ccccc2)NC(=O)[C@@H](Cc2ccccc2)NC(=O)[C@H](CCN)NC1=O`, the 50% inhibitory concentration (IC50) at Lipopolysaccharide (LPS) (read-out: IC50) is 5 µM. The molecule also yielded an MIC in the test with Pseudomonas aeruginosa of at least 250 µg/mL.

For `C[C@@H]1NC(=O)[C@@H](Cc2ccccc2)NC(=O)[C@H](CCN)NC(=O)[C@@H](NC(=O)[C@H](CCN)NC(=O)[C@@H](N)[C@@H](C)O)CCNC(=O)[C@H]([C@@H](C)O)NC(=O)[C@H](CCN)NC(=O)[C@H](CCN)NC1=O`, the IC50 on Lipopolysaccharide (LPS) (read-out: IC50) worked out at 12 µM. In the test on Pseudomonas aeruginosa, this molecule gave an MIC of at least 250 µg/mL.

With `CC(C)C[C@@H]1NC(=O)[C@@H](Cc2ccc(O)cc2)NC(=O)[C@H](CCN)NC(=O)[C@@H](NC(=O)[C@H](CCN)NC(=O)[C@@H](N)[C@@H](C)O)CCNC(=O)[C@H]([C@@H](C)O)NC(=O)[C@H](CCN)NC(=O)[C@H](CCN)NC1=O`, the half-maximal inhibitory concentration (IC50) at Lipopolysaccharide (LPS) (read-out: IC50) is 25 µM. In addition, in the test with Pseudomonas aeruginosa, the MIC is at least 500 µg/mL.

As for `CC(C)C[C@@H]1NC(=O)[C@@H](Cc2c[nH]c3ccccc23)NC(=O)[C@H](CCN)NC(=O)[C@@H](NC(=O)[C@H](CCN)NC(=O)[C@@H](N)[C@@H](C)O)CCNC(=O)[C@H]([C@@H](C)O)NC(=O)[C@H](CCN)NC(=O)[C@H](CCN)NC1=O`, the half-maximal inhibitory concentration (IC50) on Lipopolysaccharide (LPS) (read-out: IC50) was 4 µM. For the same molecule, the minimum inhibitory concentration (MIC) in the test with Pseudomonas aeruginosa is at least 500 µg/mL.

Take `CCCCCCCC(=O)N[C@@H](CCN)C(=O)N[C@H](C(=O)N[C@@H](CCN)C(=O)N[C@H]1CCNC(=O)[C@H]([C@@H](C)O)NC(=O)[C@H](CCN)NC(=O)[C@H](CCN)NC(=O)CNC(=O)[C@@H](Cc2ccccc2)NC(=O)[C@H](CCN)NC1=O)[C@@H](C)O`: the minimum inhibitory concentration (MIC) is 1 µM (≈ 1.13 µg/mL) against Escherichia coli, 2 µM in the test with Salmonella enterica and 2 µM with Pseudomonas aeruginosa. The same molecule returned a half-maximal inhibitory concentration (IC50) at Lipopolysaccharide (LPS) of 11 µM.

Take `CCCCCCCC(=O)N[C@@H](CCN)C(=O)N[C@H](C(=O)N[C@@H](CCN)C(=O)N[C@H]1CCNC(=O)[C@H]([C@@H](C)O)NC(=O)[C@H](CCN)NC(=O)[C@H](CCN)NC(=O)[C@H](Cc2c[nH]c3ccccc23)NC(=O)[C@@H](Cc2ccccc2)NC(=O)[C@H](CCN)NC1=O)[C@@H](C)O`: the MIC in the test with Escherichia coli turned out to be 2 µM (≈ 2.53 µg/mL); in the test on Salmonella enterica, 2 µM; in the test on Pseudomonas aeruginosa, 2 µM. For the same molecule, the IC50 at Lipopolysaccharide (LPS) amounted to 5 µM.

Consider `CCCCCCCC(=O)N[C@@H](CCN)C(=O)N[C@H](C(=O)N[C@@H](CCN)C(=O)N[C@H]1CCNC(=O)[C@H]([C@@H](C)O)NC(=O)[C@H](CCN)NC(=O)[C@H](CCN)NC(=O)[C@H](CC(C)C)NC(=O)[C@H](Cc2ccccc2)NC(=O)[C@H](CCN)NC1=O)[C@@H](C)O`, for which the minimum inhibitory concentration (MIC) in the test with Escherichia coli was 2 µM (≈ 2.38 µg/mL); with Salmonella enterica, 2 µM; against Pseudomonas aeruginosa, 2 µM. Also, the concentration for half-maximal inhibition (IC50) at Lipopolysaccharide (LPS) was found to be 10 µM.

Take `CC(C)C[C@@H]1NC(=O)[C@H](Cc2ccccc2)NC(=O)[C@H](CCCCN)NC(=O)[C@@H](C(N)=O)CSSC[C@@H](C(N)=O)NC(=O)[C@H](CCCCN)NC(=O)[C@H](CCCCN)NC1=O` (KFLKKC-NH2; linker N-6 via X1): in the test on Lipopolysaccharide (LPS), the Ka is 1.15 10^5/M. Moreover, the MIC with Salmonella enterica is over 1000 µg/mL.

Consider `CC(C)C[C@@H]1NC(=O)[C@H](Cc2ccccc2)NC(=O)[C@H](CCCCN)NC(=O)[C@@H](C(N)=O)CSSC[C@@H](C(=O)N[C@@H](CCCCN)C(=O)N[C@H](C(=O)NCC(=O)N[C@@H](CCCCN)C(=O)O)[C@@H](C)O)NC(=O)[C@H](CCCCN)NC(=O)[C@H](CCCCN)NC1=O` (KFLKKCKTGK-OH; linker N-6 via X1), for which the Ka with Lipopolysaccharide (LPS) was 0.56 10^7/M. Further, the MIC against Salmonella enterica was over 1000 µg/mL.

Take `CC[C@H](C)[C@H](NOC(=O)[C@H](CCCCN)NC(=O)CNC(=O)[C@@H](NC(=O)[C@H](CCCCN)NC(=O)[C@@H]1CSSC[C@H](C(N)=O)C(=O)N[C@@H](CCCCN)C(=O)N[C@@H](Cc2ccccc2)C(=O)N[C@@H](CC(C)C)C(=O)N[C@@H](CCCCN)C(=O)N[C@@H](CCCCN)C(=O)N1)[C@@H](C)O)C(=O)O` (KFLKKCKTGK-X2; linker N-6 via X1): the Ka in the test on Lipopolysaccharide (LPS) was 0.29 10^7/M. The molecule further yielded an MIC against Salmonella enterica of over 1000 µg/mL.
